The values that follow come from patent publication US20070117770A1, “Human ribosomal DNA (rDNA) and ribosomal RNA (rRNA) nucleic acids and uses thereof” (Cylene Pharmaceuticals, Inc., priority 2005, published 2007).

Holding throughout (experiment): Protein kinase inhibition assay
Common to all, as to type: biochemical

One assay concerns the target ALK(h) (Homo sapiens, UniProt Q9UM73). Particulars: read-out: percent residual activity of ALK(h). As for the experimental part: (§1) Certain compounds were tested for activity in protein kinase inhibition assays. All substrates were dissolved and diluted to working stocks in de-ionized water, apart from histone H1 (10× working stock in 20 mM MOPS pH 7.0), PDKtide (10× working stock in 50 mM Tris pH 7.0) ATF2 (which is typically stored at a 20× working stock in 50 mM Tris pH 7.5, 150 mM NaCl, 0.1 mM EGTA, 0.03% Brij-35, 50% glycerol, 1 mM benzamidine, 0.2 mM PMSF and 0.1% R-mercaptoethanol), KKLNRTLSFAEPG (SEQ ID NO:203) and RRRLSFAEPG (SEQ ID NO:204) (50 mM HEPES pH 7.4) and GGEEEEYFELVKKKK (SEQ ID NO:205) (20 mM MOPS pH 7.0). All kinases were pre-diluted to a 10× working concentration prior to addition into the assay. The composition of the dilution buffer for each kinase is detailed below.
(§2) In a final reaction volume of 25 μl, ALK (h) (5-10 mU) is incubated with 8 mM MOPS pH 7.0, 0.2 mM EDTA, 250 μM KKKSPGEYVNIEFG (SEQ ID NO:207), 10 mM MgAcetate and [y -33P-ATP] (specific activity approx. 500 cpm/pmol, concentration as required). The reaction is initiated by the addition of the MgATP mix. After incubation for 40 minutes at room temperature, the reaction is stopped by the addition of 5 μl of a 3% phosphoric acid solution. 10 μl of the reaction is then spotted onto a P30 filtermat and washed three times for 5 minutes in 75 mM phosphoric acid and once in methanol prior to drying and scintillation counting.

Another assay concerns the target cSRC(h) (Homo sapiens, UniProt P12931). To be noted: read-out: percent residual activity of cSRC(h). How it is done: as §1
In a final reaction volume of 25 μl, cSRC (h) (5-10 mU) is incubated with 8 mM MOPS pH 7.0, 0.2 mM EDTA, 250 μM KVEKIGEGTYGVVYK (SEQ ID NO:211) (Cdc2 peptide), 10 mM MgAcetate and [y-33P-ATP] (specific activity approx. 500 cpm/pmol, concentration as required). The reaction is initiated by the addition of the MgATP mix. After incubation for 40 minutes at room temperature, the reaction is stopped by the addition of 5 μl of a 3% phosphoric acid solution. […]

Another assay has as its target EphB3(h) (Homo sapiens, UniProt P54753). Particulars: read-out: percent residual activity of EphB3(h). As for the experimental part:
as §1
as §2, with “EphB3” for “ALK”, “10 mM MnCl2, 0.1 mg/ml poly (Glu, Tyr) 4:1,” for “250 μM KKKSPGEYVNIEFG (SEQ ID NO:207),”, “[gamma-33P-ATP]” for “[y -33P-ATP]”, “Filtermat A” for “P30 filtermat”

The next assay has as its target ALK4(h) (Homo sapiens, UniProt P36896). To be noted: read-out: percent residual activity of ALK4(h). How it is done: as §1
as §2, with “ALK4” for “ALK”, “2 mg/ml casein,” for “250 μM KKKSPGEYVNIEFG (SEQ ID NO:207),”, “[gamma-33P-ATP]” for “[y -33P-ATP]”

The target of a further assay is IKKβ(h) (Homo sapiens, UniProt O14920). To be noted: read-out: percent residual activity of IKKβ(h). As for the experimental part: as §1
as §2, with “IKKβ” for “ALK”, “100” for “250”, “peptide,” for “KKKSPGEYVNIEFG (SEQ ID NO:207),”, “[gamma-33P-ATP]” for “[y -33P-ATP]”

Another assay deals with Fms(h) (Homo sapiens, UniProt P07333). Particulars: read-out: percent residual activity of Fms(h). How it is done:
as §1
as §2, with “Fms” for “ALK”, “[y-33P-ATP]” for “[y -33P-ATP]”

IKKβ(h), sequence (O14920 whole entry): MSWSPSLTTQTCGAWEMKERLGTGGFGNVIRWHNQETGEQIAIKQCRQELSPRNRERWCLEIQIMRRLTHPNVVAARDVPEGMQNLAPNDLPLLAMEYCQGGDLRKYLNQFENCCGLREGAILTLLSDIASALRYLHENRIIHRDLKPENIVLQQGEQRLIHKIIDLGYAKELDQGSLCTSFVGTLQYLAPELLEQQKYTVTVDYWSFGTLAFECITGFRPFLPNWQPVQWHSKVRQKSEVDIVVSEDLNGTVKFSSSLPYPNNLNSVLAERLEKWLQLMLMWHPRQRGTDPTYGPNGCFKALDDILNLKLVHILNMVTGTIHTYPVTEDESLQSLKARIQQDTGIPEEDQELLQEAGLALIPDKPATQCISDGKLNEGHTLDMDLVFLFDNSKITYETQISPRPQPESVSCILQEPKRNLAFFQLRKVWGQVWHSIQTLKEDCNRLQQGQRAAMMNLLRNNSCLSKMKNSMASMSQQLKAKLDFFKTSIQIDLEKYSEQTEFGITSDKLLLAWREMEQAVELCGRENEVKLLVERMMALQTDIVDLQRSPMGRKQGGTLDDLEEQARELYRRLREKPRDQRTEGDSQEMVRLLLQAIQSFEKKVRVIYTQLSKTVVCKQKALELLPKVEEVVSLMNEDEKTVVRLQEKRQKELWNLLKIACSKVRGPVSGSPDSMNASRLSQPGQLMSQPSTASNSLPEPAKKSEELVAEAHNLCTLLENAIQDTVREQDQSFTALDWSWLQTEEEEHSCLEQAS
ALK(h), sequence (Q9UM73 19-1620): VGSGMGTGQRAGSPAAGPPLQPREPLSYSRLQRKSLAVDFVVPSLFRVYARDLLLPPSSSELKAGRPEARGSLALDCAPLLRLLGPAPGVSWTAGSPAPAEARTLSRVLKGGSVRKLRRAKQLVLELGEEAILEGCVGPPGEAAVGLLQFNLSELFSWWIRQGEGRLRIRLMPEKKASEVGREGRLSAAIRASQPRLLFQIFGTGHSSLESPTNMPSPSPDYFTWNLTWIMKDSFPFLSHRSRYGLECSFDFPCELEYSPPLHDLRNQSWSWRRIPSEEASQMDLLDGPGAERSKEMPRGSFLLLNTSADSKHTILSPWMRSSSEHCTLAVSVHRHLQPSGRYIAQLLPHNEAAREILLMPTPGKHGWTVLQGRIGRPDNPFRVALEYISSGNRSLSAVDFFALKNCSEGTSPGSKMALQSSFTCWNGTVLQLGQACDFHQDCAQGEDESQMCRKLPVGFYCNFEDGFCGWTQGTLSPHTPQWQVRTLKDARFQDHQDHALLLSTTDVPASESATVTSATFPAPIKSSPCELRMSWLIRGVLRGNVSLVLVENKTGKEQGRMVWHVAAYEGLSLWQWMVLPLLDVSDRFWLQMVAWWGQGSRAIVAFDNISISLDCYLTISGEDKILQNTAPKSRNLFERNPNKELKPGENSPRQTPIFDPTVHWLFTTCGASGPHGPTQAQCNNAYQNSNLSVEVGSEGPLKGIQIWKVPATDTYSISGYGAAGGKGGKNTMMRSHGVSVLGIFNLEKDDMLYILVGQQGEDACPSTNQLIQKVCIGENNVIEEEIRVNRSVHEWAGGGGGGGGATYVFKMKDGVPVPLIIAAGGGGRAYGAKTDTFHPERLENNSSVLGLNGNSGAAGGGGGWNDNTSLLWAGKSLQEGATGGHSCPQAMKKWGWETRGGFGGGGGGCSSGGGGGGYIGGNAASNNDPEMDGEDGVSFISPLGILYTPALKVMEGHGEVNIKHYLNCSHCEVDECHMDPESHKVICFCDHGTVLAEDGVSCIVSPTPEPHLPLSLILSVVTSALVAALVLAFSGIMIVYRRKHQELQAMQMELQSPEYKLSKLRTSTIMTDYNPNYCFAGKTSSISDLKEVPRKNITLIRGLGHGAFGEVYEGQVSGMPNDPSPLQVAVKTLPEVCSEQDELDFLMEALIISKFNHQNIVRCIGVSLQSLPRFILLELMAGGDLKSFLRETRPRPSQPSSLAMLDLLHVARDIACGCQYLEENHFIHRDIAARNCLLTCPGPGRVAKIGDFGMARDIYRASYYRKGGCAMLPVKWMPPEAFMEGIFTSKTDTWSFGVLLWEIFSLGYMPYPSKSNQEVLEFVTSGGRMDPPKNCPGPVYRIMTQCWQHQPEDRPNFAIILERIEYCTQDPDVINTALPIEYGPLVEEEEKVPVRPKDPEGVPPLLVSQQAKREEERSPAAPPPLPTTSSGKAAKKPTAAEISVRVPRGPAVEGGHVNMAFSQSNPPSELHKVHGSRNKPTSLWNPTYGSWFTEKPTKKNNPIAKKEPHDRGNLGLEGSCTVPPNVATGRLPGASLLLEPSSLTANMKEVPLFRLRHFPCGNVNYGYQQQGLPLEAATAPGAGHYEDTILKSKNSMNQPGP
cSRC(h), sequence (P12931 whole entry): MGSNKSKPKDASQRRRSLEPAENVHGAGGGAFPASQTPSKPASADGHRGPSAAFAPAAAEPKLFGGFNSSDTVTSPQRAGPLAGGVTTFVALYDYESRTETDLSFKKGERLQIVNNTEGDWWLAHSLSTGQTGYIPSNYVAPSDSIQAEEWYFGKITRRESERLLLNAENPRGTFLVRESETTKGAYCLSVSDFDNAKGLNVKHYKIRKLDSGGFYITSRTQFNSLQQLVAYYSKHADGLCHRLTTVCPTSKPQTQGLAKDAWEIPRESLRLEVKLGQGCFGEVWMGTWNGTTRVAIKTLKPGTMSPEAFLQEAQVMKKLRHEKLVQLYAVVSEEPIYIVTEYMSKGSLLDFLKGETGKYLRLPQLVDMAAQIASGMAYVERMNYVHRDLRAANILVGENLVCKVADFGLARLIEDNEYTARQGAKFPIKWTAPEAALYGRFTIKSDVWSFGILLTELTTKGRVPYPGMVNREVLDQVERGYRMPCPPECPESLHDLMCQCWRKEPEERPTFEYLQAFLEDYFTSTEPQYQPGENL
Fms(h), sequence (P07333 20-972): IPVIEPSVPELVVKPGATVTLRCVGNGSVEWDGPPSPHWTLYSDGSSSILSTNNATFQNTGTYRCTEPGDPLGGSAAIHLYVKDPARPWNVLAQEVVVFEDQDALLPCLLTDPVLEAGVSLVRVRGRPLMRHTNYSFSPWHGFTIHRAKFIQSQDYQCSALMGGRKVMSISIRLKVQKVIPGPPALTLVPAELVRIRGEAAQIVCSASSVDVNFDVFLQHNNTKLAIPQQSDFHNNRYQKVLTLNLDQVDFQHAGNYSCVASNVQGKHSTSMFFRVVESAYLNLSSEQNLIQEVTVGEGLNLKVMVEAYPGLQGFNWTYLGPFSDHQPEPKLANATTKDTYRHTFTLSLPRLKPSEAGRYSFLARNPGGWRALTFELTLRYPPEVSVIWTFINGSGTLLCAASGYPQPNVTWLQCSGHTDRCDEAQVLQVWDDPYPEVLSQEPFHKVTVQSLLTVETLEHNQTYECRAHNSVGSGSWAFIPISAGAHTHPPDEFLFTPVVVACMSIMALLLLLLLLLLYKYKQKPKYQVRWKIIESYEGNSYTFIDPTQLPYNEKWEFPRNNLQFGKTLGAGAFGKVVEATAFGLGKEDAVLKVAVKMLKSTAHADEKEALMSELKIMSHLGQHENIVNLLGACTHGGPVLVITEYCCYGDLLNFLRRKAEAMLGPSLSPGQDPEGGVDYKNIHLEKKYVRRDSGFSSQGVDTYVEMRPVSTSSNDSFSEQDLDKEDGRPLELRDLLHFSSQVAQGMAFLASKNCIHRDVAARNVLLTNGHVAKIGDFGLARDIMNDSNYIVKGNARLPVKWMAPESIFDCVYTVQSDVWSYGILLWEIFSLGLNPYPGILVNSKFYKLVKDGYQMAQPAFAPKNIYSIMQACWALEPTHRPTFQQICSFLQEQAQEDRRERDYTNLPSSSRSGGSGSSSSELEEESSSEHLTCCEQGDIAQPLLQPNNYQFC
ALK4(h), sequence (P36896 24-505): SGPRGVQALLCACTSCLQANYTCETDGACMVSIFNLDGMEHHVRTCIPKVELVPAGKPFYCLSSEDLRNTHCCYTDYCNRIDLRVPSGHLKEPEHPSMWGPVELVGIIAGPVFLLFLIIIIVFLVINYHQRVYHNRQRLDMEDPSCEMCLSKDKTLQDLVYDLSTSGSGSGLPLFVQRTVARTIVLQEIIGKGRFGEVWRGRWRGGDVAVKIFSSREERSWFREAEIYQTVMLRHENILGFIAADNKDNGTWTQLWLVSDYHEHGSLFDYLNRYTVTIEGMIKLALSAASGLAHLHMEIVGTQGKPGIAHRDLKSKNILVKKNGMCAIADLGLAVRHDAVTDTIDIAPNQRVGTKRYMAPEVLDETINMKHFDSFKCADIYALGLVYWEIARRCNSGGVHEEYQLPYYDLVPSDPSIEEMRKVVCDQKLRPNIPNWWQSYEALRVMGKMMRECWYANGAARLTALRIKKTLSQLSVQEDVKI

For the molecule `CN1CCCC1CCNC(=O)c1cn2c3c(c(N4CCC(c5cnccn5)C4)c(F)cc3c1=O)Oc1cc3ccccc3cc1-2` (stereo not drawn) [Compound A-1], the remaining activity at 2.5 µM turned out to be 69% on ALK(h); 33% at cSRC(h); 111% on EphB3(h); 108% on ALK4(h); 56% on IKKβ(h); 131% on Fms(h).

As for `CC(=O)N1CCN(c2ccc3c(=O)c(C(=O)NCCN4CCCC4)c4n(C)c5ccccc5n4c3n2)CC1` [Compound B-1], the remaining activity at 2.5 µM on ALK(h) turned out to be 97%; on cSRC(h), 137%; at EphB3(h), 115%; on ALK4(h), 103%; at IKKβ(h), 105%; on Fms(h) it was 107%.
